Measured values as given in patent US6888003B2, “Method for producing 7-(pyrazole-3-yl) benzoxazoles” (BASF Aktiengesellschaft, priority 2000, dated 2005).

What was measured:
Experiment in all cases: Greenhouse herbicidal post-emergence test
[1] = tested on: AMARE; type: in vivo, velvet leaf; details: application rate 31.3 g/ha
Description: (§1) The culture containers used were plastic pots containing loamy sand with approximately 3.0% of humus as the substrate. The seeds of the test plants were sown separately for each species. For the post-emergence treatment, the test plants were first grown to a height of 3 to 15 cm, depending on the plant form, and only then treated with the active compounds which had been suspended or emulsified in water. For this purpose, the test plants were either sown directly and grown in the same containers, or they were first grown separately as seedlings and transplanted into the test containers a few days prior to treatment. The application rate for the post-emergence treatment was 31.3 g of a.s./ha. Depending on the species, the plants were kept at 10-25° C. or 20-35° C. The test period extended over 2 to 4 weeks. During this time, the plants were tended, and their response to the individual treatments was evaluated. The evaluation was carried out using a scale from 0 to 100. 100 means no emergence of the plants, or complete destruction of at least the above-ground parts, and 0 means no damage, or normal course of growth. The plants used in the greenhouse experiments were composed of the following species: [table]

[2] = tested on: CHEAL; type: in vivo, lamb's-quarters; details: application rate 31.3 g/ha
Description: as §1

[3] = tested on: BRAPL; type: in vivo, marmalade grass
Description: as §1, with “The application rate for the post-emergence treatment was 31.3 g of a.s./ha.” left out

[4] = tested on: SETFA; type: in vivo, giant foxtail
Description: as §1, with “The application rate for the post-emergence treatment was 31.3 g of a.s./ha.” left out

Cn1nc(-c2c(F)cc(Cl)c(N)c2Br)c(Cl)c1OC(F)F [IVa.1, 2-bromo-4-fluoro-6-chloro-3-(4-chloro-5-difluoromethoxy-1-methyl-1H-pyrazol-3-yl)aniline]
very good: herbicidal post-emergence activity against AMARE [1] | herbicidal post-emergence activity against CHEAL [2] | herbicidal post-emergence activity against BRAPL ([3]; application rate 15.6 g/ha) | herbicidal post-emergence activity against BRAPL ([3]; application rate 31.3 g/ha) | herbicidal post-emergence activity against SETFA ([4]; application rate 31.3 g/ha)
very good to good: herbicidal post-emergence activity against SETFA ([4]; application rate 15.6 g/ha)
